# Test system: recombinant human CRF receptors
# Test: CRF receptors-binding assay by scintillation proximity (SPA), displacement of 125I-oCRF (CRF1) / 125I-Sauvagine (CRF2)
# Conditions: qualitative statement; assay not specified
# Procedure: The CRF receptors-binding assay was performed by using the homogeneous technique of scintillation proximity (SPA). The ligand binds to recombinant membrane preparation expressing the CRF receptors which in turn bind to wheat germ agglutinin coated SPA beads. In the Experimental Part will be disclosed the details of the experiments.
# CRF binding affinity has been determined in vitro by the compounds' ability to displace ^125I-oCRF and ^125I-Sauvagine for CRF1 and CRF2 SPA, respectively, from recombinant human CRF receptors expressed in Chinese Hamster Ovary (CHO) cell membranes. For membrane preparation, CHO cells from confluent T-flasks were collected in SPA buffer (HEPES/KOH 50 mM, EDTA 2 mM; MgCl2 10 mM, pH 7.4.) in 50 mL centrifuge tubes, homogenized with a Polytron and centrifuged (50,000 g for 5 min at 4° C.: Beckman centrifuge with JA20 rotor). The pellet was resuspended, homogenized and centrifuged as before.
# The SPA experiment has been carried out in Optiplate by the addition of 100 μL the reagent mixture to 1 μL of compound dilution (100% DMSO solution) per well. […]
# The plate was incubated overnight (>18 hrs) at room temperature and read with the Packard Topcount with a WGA-SPA ^125I counting protocol.
structure (smiles),measurement,value
"CCC(COC)Oc1nc(C)nc2c1CCN2c1ccc(C(F)(F)F)cc1C(F)(F)F (stereo not shown) [Compound 1-12, 7-(2,4-bis-trifluoromethyl-phenyl)-4-(1-methoxymethyl-propoxy)-2-methyl-6,7-dihydro-5H-pyrrolo[2,3-d]pyrimidine]",activity,good activity

# From patent US7462622B2, “Pyrrolo[2, 3-d] pyrimidine derivatives as corticotropin releasing factor antagonists” (Glaxo Group Limited, priority 2001, dated 2008)
